From patent US12539292B2, “BRM targeting compounds and associated methods of use” (Arvinas Operations, Inc., priority 2018, dated 2026)
Where two headings read alike, the source gives them in different places.

Target: T1, BRM (Homo sapiens, UniProt P51531)
T1 construct: In-Cell Western Screen of BRM Degradation in SW1573 Cells; endogenous in cells; host or cells: SW1573
Experiment: In-cell Western screen of BRM degradation in SW1573 cells (Dmax and DC50)
Type: cell-based
Settings: BRM degradation
Procedure, shortened: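 After adhering overnight, cells received compound for 18-20 hours. They were then washed in cold DPBS, fixed with 4% PFA for 20 min and permeabilized for 30 min. Blocking and fluorescent secondary staining followed before imaging.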

[1] = SW1573 cells, Table 2D, read-out: **Dmax (%) (% degraded)
[2] = SW1573 cells, Table 2D, read-out: *DC50
[3] = SW1573 cells, tested at the top concentration of between 0.3 and 10 μM, read-out: Dmax (%) (% degraded)
[4] = SW1573 cells, when tested at the top concentration of between 0.3 and 10 μM, read-out: Dmax (%) (% degraded)

T1 sequence (P51531 whole entry): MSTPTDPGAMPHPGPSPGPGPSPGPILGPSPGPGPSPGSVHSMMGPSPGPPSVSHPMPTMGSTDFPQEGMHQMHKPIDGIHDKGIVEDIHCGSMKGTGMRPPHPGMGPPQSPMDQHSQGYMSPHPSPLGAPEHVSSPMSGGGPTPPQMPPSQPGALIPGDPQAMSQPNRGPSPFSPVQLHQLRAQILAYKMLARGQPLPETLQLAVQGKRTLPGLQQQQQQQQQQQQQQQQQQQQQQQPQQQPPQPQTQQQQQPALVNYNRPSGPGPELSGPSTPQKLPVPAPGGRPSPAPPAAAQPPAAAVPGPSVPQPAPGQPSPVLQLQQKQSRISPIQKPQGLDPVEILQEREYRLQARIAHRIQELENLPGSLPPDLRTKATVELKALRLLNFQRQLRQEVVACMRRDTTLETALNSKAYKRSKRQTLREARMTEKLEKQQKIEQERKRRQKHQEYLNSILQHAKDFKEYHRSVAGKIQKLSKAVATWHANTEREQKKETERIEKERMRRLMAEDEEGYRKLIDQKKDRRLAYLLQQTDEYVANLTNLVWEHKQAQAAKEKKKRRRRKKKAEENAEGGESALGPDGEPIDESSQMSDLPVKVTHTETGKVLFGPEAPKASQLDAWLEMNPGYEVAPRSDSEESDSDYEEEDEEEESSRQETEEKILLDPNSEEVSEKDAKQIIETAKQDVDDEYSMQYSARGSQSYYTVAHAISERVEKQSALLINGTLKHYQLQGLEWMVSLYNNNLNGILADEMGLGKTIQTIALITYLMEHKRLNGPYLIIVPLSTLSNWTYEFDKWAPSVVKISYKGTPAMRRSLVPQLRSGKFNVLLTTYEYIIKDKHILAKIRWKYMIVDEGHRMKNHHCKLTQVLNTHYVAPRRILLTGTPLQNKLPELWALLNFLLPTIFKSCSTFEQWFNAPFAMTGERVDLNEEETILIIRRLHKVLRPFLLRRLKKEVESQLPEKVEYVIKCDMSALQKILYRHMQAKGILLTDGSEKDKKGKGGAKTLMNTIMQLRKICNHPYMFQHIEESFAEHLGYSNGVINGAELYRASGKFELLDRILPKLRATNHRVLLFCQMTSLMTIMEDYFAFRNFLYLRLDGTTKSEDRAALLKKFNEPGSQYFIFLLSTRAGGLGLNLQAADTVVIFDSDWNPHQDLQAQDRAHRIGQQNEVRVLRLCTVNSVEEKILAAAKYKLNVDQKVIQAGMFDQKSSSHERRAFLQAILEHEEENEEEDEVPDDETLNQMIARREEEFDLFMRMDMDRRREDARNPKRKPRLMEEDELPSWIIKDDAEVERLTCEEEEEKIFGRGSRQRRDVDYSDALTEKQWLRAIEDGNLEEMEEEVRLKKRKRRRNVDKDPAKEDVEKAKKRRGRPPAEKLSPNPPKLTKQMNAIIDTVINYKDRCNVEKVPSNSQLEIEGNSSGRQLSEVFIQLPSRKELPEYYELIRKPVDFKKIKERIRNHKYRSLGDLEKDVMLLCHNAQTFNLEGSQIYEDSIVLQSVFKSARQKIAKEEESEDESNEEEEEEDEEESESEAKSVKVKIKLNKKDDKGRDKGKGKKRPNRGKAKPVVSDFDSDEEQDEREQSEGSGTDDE

Structure (SMILES) | Dmax [1] [%] | DC50 [2] [nM] | DC50 (SW1573 cells, read-out: DC50) [nM] | further results
Cc1nccn1-c1ccc([C@H](C)NC(=O)[C@@H]2C[C@@H](O)CN2C(=O)[C@@H](c2cc(N3CCC(CN4CCC(O[C@H]5C[C@H](Oc6cc(N7C8CCC7CN(c7cc(-c9ccccc9O)nnc7N)C8)ccn6)C5)CC4)CC3)no2)C(C)C)cc1 [compound 606, (2S,4R)-1-((2S)-2-(3-(4-((4-((1r,3r)-3-((4-(3-(3-amino-6-(2-hydroxyphenyl)pyridazin-4-yl)-3,8-diazabicyclo[3.2.1]octan-8-yl)pyridin-2-yl)oxy)cyclobutoxy)piperidin-1-yl)methyl)piperidin-1-yl)isoxazol-5-yl)-3-methylbutanoyl)-4-hydroxy-N-((S)-1-(4-(2-methyl-1H-imidazol-1-yl)phenyl)ethyl)pyrrolidine-2-carboxamide] | > 75 | 10 to 30 |  | 
CC(C)[C@@H](C(=O)N1C[C@H](O)C[C@H]1C(=O)N[C@@H](C)c1ccc(C#N)cc1)c1cc(OCCN2CCC(O[C@H]3C[C@H](Oc4cc(N5C6CCC5CN(c5cc(-c7ccccc7O)nnc5N)C6)ccn4)C3)CC2)no1 [compound 203, (2S,4R)-1-((2R)-2-(3-(2-(4-((1r,3R)-3-((4-(3-(3-amino-6-(2-hydroxyphenyl)pyridazin-4-yl)-3,8-diazabicyclo[3.2.1]octan-8-yl)pyridin-2-yl)oxy)cyclobutoxy)piperidin-1-yl)ethoxy)isoxazol-5-yl)-3-methylbutanoyl)-N-((S)-1-(4-cyanophenyl)ethyl)-4-hydroxypyrrolidine-2-carboxamide] |  |  | < 2.5 | Dmax [3]: > 75%
Cc1ncsc1-c1ccc([C@H](C)NC(=O)[C@@H]2C[C@@H](O)CN2C(=O)[C@H](c2cc(OCC[C@H]3CCN(C[C@H]4C[C@H](Oc5cc(N6C7CCC6CN(c6cc(-c8ccccc8O)nnc6N)C7)ccn5)C4)[C@@H](C)[C@H]3C)no2)C(C)C)cc1 (single isomer, unassigned) [compound 585] | > 75 | 2.5 to 10 |  | 
Cc1ncsc1-c1ccc([C@H](C)NC(=O)[C@@H]2C[C@@H](O)CN2C(=O)[C@H](c2onc(OCCN3CCN(CCOc4cc(N5C6CCC5CN(c5cc(-c7ccccc7O)nnc5N)C6)ccn4)CC3)c2F)C(C)C)cc1 [compound 198, (2S,4R)-1-((2S)-2-(3-(2-(4-(2-((4-(3-(3-amino-6-(2-hydroxyphenyl)pyridazin-4-yl)-3,8-diazabicyclo[3.2.1]octan-8-yl)pyridin-2-yl)oxy)ethyl)piperazin-1-yl)ethoxy)-4-fluoroisoxazol-5-yl)-3-methylbutanoyl)-4-hydroxy-N-((S)-1-(4-(4-methylthiazol-5-yl)phenyl)ethyl)pyrrolidine-2-carboxamide] |  |  | 10 to 30 | Dmax [3]: > 75%
CC(C)[C@@H](C(=O)N1C[C@H](O)C[C@H]1C(=O)N[C@@H](C)c1ccc(-c2ccnn2C)cc1)c1cc(N2CCC(CN3CCC(O[C@H]4C[C@H](Oc5cc(N6C7CCC6CN(c6cc(-c8ccccc8O)nnc6N)C7)ccn5)C4)CC3)CC2)no1 [compound 622, (2S,4R)-1-((2R)-2-(3-(4-((4-((1r,3r)-3-((4-(3-(3-amino-6-(2-hydroxyphenyl)pyridazin-4-yl)-3,8-diazabicyclo[3.2.1]octan-8-yl)pyridin-2-yl)oxy)cyclobutoxy)piperidin-1-yl)methyl)piperidin-1-yl)isoxazol-5-yl)-3-methylbutanoyl)-4-hydroxy-N-((S)-1-(4-(1-methyl-1H-pyrazol-5-yl)phenyl)ethyl)pyrrolidine-2-carboxamide] | > 75 | < 2.5 |  | 
Cc1ncsc1-c1ccc([C@H](C)NC(=O)[C@@H]2C[C@@H](O)CN2C(=O)[C@@H](c2cc(OCC[C@H]3CCN(C[C@H]4C[C@H](Oc5cc(N6C7CCC6CN(c6cc(-c8ccccc8O)nnc6N)C7)ccn5)C4)[C@@H](C)C3)no2)C(C)C)cc1 [compound 548, (2S,4R)-1-((2R)-2-(3-(2-((2S,4S)-1-(((1r,3S)-3-((4-(3-(3-amino-6-(2-hydroxyphenyl)pyridazin-4-yl)-3,8-diazabicyclo[3.2.1]octan-8-yl)pyridin-2-yl)oxy)cyclobutyl)methyl)-2-methylpiperidin-4-yl)ethoxy)isoxazol-5-yl)-3-methylbutanoyl)-4-hydroxy-N-((S)-1-(4-(4-methylthiazol-5-yl)phenyl)ethyl)pyrrolidine-2-carboxamide] | > 75 | < 2.5 |  | 
Cc1ncsc1-c1ccc([C@H](C)NC(=O)[C@@H]2C[C@@H](O)CN2C(=O)[C@@H](c2cc(OCCCOc3cc(N4C5CCC4CN(c4cc(-c6ccccc6O)nnc4N)C5)ccn3)no2)C(C)C)cc1 [compound 614, (2S,4R)-1-((2R)-2-(3-(3-((4-(3-(3-amino-6-(2-hydroxyphenyl)pyridazin-4-yl)-3,8-diazabicyclo[3.2.1]octan-8-yl)pyridin-2-yl)oxy)propoxy)isoxazol-5-y1)-3-methylbutanoyl)-4-hydroxy-N-((S)-1-(4-(4-methylthiazol-5-yl)phenyl)ethyl)pyrrolidine-2-carboxamide] | > 75 | < 2.5 |  | 
Cc1ncsc1-c1ccc([C@H](COCC2CCOCC2)NC(=O)[C@@H]2C[C@@H](O)CN2C(=O)[C@@H](c2cc(OCCN3CCN(CCOc4cc(N5C6CCC5CN(c5cc(-c7ccccc7O)nnc5N)C6)ccn4)CC3)no2)C(C)C)cc1 [compound 130, (2S,4R)-1-((2R)-2-(3-(2-(4-(2-((4-(3-(3-amino-6-(2-hydroxyphenyl)pyridazin-4-yl)-3,8-diazabicyclo[3.2.1]octan-8-yl)pyridin-2-yl)oxy)ethyl)piperazin-1-yl)ethoxy)isoxazol-5-yl)-3-methylbutanoyl)-4-hydroxy-N-((R)-1-(4-(4-methylthiazol-5-yl)phenyl)-2-((tetrahydro-2H-pyran-4-yl)methoxy)ethyl)pyrrolidine-2-carboxamide] |  |  | 2.5 to 10 | Dmax [4]: > 75%
Cc1ncsc1-c1ccc([C@H](C)NC(=O)[C@@H]2C[C@@H](O)CN2C(=O)[C@@H](c2cc(CCCN3CCN(CCOc4cc(N5C6CCC5CN(c5cc(-c7ccccc7O)nnc5N)C6)ccn4)CC3)no2)C(C)C)cc1 [compound 134, (2S,4R)-1-((2R)-2-(3-(3-(4-(2-((4-(3-(3-amino-6-(2-hydroxyphenyl)pyridazin-4-yl)-3,8-diazabicyclo[3.2.1]octan-8-yl)pyridin-2-yl)oxy)ethyl)piperazin-1-yl)propyl)isoxazol-5-yl)-3-methylbutanoyl)-4-hydroxy-N-((S)-1-(4-(4-methylthiazol-5-yl)phenyl)ethyl)pyrrolidine-2-carboxamide] |  |  | < 2.5 | Dmax [4]: > 75%
Cc1ncsc1-c1ccc([C@H](C)NC(=O)[C@@H]2C[C@@H](O)CN2C(=O)[C@@H](c2cc(OCCC3CCN(CCOc4cc(N5C6CCC5CN(c5cc(-c7ccccc7O)nnc5N)C6)ccn4)CC3)no2)C(C)C)cc1 [compound 511, (2S,4R)-1-((2R)-2-(3-(2-(1-(2-((4-(3-(3-amino-6-(2-hydroxyphenyl)pyridazin-4-yl)-3,8-diazabicyclo[3.2.1]octan-8-yl)pyridin-2-yl)oxy)ethyl)piperidin-4-yl)ethoxy)isoxazol-5-yl)-3-methylbutanoyl)-4-hydroxy-N-((S)-1-(4-(4-methylthiazol-5-yl)phenyl)ethyl)pyrrolidine-2-carboxamide] |  |  |  | DC50 (read-out: BRM DC50): > 30 nM
Cc1ncsc1-c1ccc(CNC(=O)[C@@H]2C[C@@H](O)CN2C(=O)[C@@H](c2cc(OCCOCCOCCOCCn3cc(-c4cc(-c5ccccc5O)nnc4N)cn3)no2)C(C)C)cc1 [compound 17, (2S,4R)-1-((R)-2-(3-(2-(2-(2-(2-(4-(3-amino-6-(2-hydroxyphenyl)pyridazin-4-yl)-1H-pyrazol-1-yl)ethoxy)ethoxy)ethoxy)ethoxy)isoxazol-5-yl)-3-methylbutanoyl)-4-hydroxy-N-(4-(4-methylthiazol-5-yl)benzyl)pyrrolidine-2-carboxamide] |  |  | 2.5 to 10 | Dmax [4]: > 75%
Cc1ncsc1-c1ccc([C@H](C)NC(=O)[C@@H]2C[C@@H](O)CN2C(=O)[C@H](c2cc(N3CCC(CN4CCC(O[C@H]5C[C@H](N6CCOC7(CCN(c8cc(-c9ccccc9O)nnc8N)CC7)C6)C5)CC4)CC3)no2)C(C)C)cc1 [compound 617, (2S,4R)-1-((S)-2-(3-(4-((4-((1r,3r)-3-(9-(3-amino-6-(2-hydroxyphenyl)pyridazin-4-yl)-1-oxa-4,9-diazaspiro[5.5]undecan-4-yl)cyclobutoxy)piperidin-1-yl)methyl)piperidin-1-yl)isoxazol-5-yl)-3-methylbutanoyl)-4-hydroxy-N-((S)-1-(4-(4-methylthiazol-5-yl)phenyl)ethyl)pyrrolidine-2-carboxamide] |  | > 30 |  | 
Cc1ncsc1-c1ccc([C@H](C)NC(=O)[C@@H]2C[C@@H](O)CN2C(=O)[C@H](c2cc(N3CCC(CN4CCC(O[C@H]5C[C@H](CN6CCOC7(CCN(c8cc(-c9ccccc9O)nnc8N)CC7)C6)C5)CC4)CC3)no2)C(C)C)cc1 [compound 609, (2S,4R)-1-((S)-2-(3-(4-((4-((1r,3r)-3-((9-(3-amino-6-(2-hydroxyphenyl)pyridazin-4-yl)-1-oxa-4,9-diazaspiro[5.5]undecan-4-yl)methyl)cyclobutoxy)piperidin-1-yl)methyl)piperidin-1-yl)isoxazol-5-yl)-3-methylbutanoyl)-4-hydroxy-N-((S)-1-(4-(4-methylthiazol-5-yl)phenyl)ethyl)pyrrolidine-2-carboxamide] |  | > 30 |  | 
Cc1cc([C@H](C(=O)N2C[C@H](O)C[C@H]2C(=O)N[C@@H](C)c2ccc(-c3scnc3C)cc2)[C@H](C)COCCn2cc(-c3cc(-c4ccccc4O)nnc3N)cn2)on1 [compound 538, (2S,4R)-1-((2R,3S)-4-(2-(4-(3-amino-6-(2-hydroxyphenyl)pyridazin-4-yl)-1H-pyrazol-1-yl)ethoxy)-3-methyl-2-(3-methylisoxazol-5-yl)butanoyl)-4-hydroxy-N-((S)-1-(4-(4-methylthiazol-5-yl)phenyl)ethyl)pyrrolidine-2-carboxamide] |  | > 30 |  | 
